US6544989B2, “Benzazoles: benzoxazole, benzthiazole and benzimidazole derivatives” (Syngenta Limited, priority 1998, dated 2003)
Like-named read-outs stand apart in the source and are kept apart here. Marks after values point to notes of the source that are not given here.

Experiments:
[1] = system: Erysiphe graminis f.sp. tritici; experiment: Fungicidal test, Erysiphe graminis f.sp. tritici (ERYSGT) on wheat, PRCO; type: in vivo; conditions: for ERYSGT 1 d Prot/Foir PRCO: METHOD 2 (unbanded); for ERYSGT 6 hr Prot/Foir PRCO: METHOD 1 (values marked *)
Meloidogyne incognita = experiment: Nematode test, J2 infective juveniles of Meloidogyne incognita, mortality; conditions: 12.5 ppm; J2 infective juveniles suspended in solution; mortality after three days
Rhizoctonia solani = experiment: Fungicidal test, Rhizoctonia solani (RHIZSO) on rice, PRCO; type: in vivo; conditions: METHOD 2 (unbanded)
Plasmopara viticola = experiment: Fungicidal test, Plasmopara viticola (PLASVI) on vines, PRCO; type: in vivo
Septoria nodorum = experiment: Fungicidal test, Septoria nodorum (LEPTNO) on wheat, PRCO; type: in vivo
Musca domestica = conditions: 500 ppm by weight; knockdown assessed 15 minutes after treatment
Venturia inaequalis = experiment: Fungicidal test, Venturia inaequalis (VENTIN) on apples, PRCO; type: in vivo; conditions: METHOD 2 (unbanded)
Uncinula necator = experiment: Fungicidal test, Uncinula necator (UNCINE) on vines, PRCO; type: in vivo; conditions: METHOD 2 (unbanded)
Puccinia recondita = experiment: Fungicidal test, Puccinia recondita (PUCCRT) on wheat, PRCO; type: in vivo
Pyricularia oryzae = type: in vivo; conditions: METHOD 2 (unbanded)
[2] = system: Phytophthora infestans lycopersici; type: in vivo

| Compound | ERYSGT 1 d Prot/Foir PRCO [1] | MELGIN = Meloidogyne incognita, grading of mortality (score) (Meloidogyne incognita) | RHIZSO 1 d Prot/Foir PRCO (Rhizoctonia solani) | PLASVI 1 d Prot/Foir PRCO (Plasmopara viticola; METHOD 2 (unbanded)) | LEPTNO 1 d Prot/Foir PRCO (Septoria nodorum; METHOD 2 (unbanded)) | MUSCDO AC = Musca domestica (knockdown), score (Musca domestica) | VENTIN 1 d Prot/Foir PRCO (Venturia inaequalis) | UNCINE 1 d Prot/Foir PRCO (Uncinula necator) | PUCCRT 1 d Prot/Foir PRCO (Puccinia recondita; METHOD 2 (unbanded)) | PYRIOR 1 d Prot/Foir PRCO (Pyricularia oryzae) | PHYTIN 1 d Prot/Foir PRCO ([2]; METHOD 2 (unbanded)) | PHYTIN 1 d Prot/Foir PRCO ([2]; METHOD 1 (values marked *)) | PUCCRT 1 d Prot/Foir PRCO (Puccinia recondita; METHOD 1 (values marked *)) | ERYSGT 6 hr Prot/Foir PRCO [1] | PLASVI 1 d Prot/Foir PRCO (Plasmopara viticola; METHOD 1 (values marked *)) | LEPTNO 1 d Prot/Foir PRCO (Septoria nodorum; METHOD 1 (values marked *)) |
| --- | --- | --- | --- | --- | --- | --- | --- | --- | --- | --- | --- | --- | --- | --- | --- | --- |
| CCc1nc2cc(CC(=O)Nc3snc(C)c3Cl)ccc2o1 [3(A3)] | 4 | 0 (0 indicates less than 40% mortality) | 0 | 14 | 33 | 9 (9 indicates 80-100% mortality) | 67 | 27 | 98 |  |  |  |  |  |  |  |
| Cc1nsc(NC(=O)Cc2ccc3oc(C(C)C)nc3c2)c1Cl [8(A3)] | 20 | 0 (0 indicates less than 40% mortality) | 0 | 6 | 0 | 9 (9 indicates 80-100% mortality) | 26 | 40 | 90 |  |  |  |  |  |  |  |
| CCC(C)c1nc2cc(CC(=O)Nc3snc(C)c3Cl)ccc2o1 (stereo not shown) [10(A3)] | 98 | 0 (0 indicates less than 40% mortality) | 0 | 87 | 28 | 5 (5 indicates 40-79% mortality) | 40 | 96 | 100 | 77 | 100 |  |  |  |  |  |
| CCC(CC)c1nc2cc(CC(=O)Nc3snc(C)c3Cl)ccc2o1 [13(A3)] | 100 | 0 (0 indicates less than 40% mortality) | 19 | 100 | 58 | 9 (9 indicates 80-100% mortality) | 53 | 100 | 100 | 96 | 93 |  |  |  |  |  |
| Cc1nsc(NC(=O)Cc2ccc3oc(CC(C)C)nc3c2)c1Cl [14(A3)] | 90 | 0 (0 indicates less than 40% mortality) | 12 | 89 | 28 | 9 (9 indicates 80-100% mortality) | 10 | 98 | 97 | 90 | 100 |  |  |  |  |  |
| Cc1nsc(NC(=O)Cc2ccc3nc(CC(C)(C)C)oc3c2)c1Cl [15(A23)] | 62 | 0 (0 indicates less than 40% mortality) | 0 |  | 83 | 0 (0 indicates less than 40% mortality) | 100 | 100 | 98 | 80 | 100 |  |  |  |  |  |
| Cc1nsc(N(C)C(=O)Cc2ccc3oc(CC(C)(C)C)nc3c2)c1Cl [15(B3)] | 75 | 0 (0 indicates less than 40% mortality) | 29 | 79 | −2 | 0 (0 indicates less than 40% mortality) | 5 | 100 | 15 | 69 | 99 |  |  |  |  |  |
| Cc1nsc(NC(=S)Cc2ccc3oc(CC(C)(C)C)nc3c2)c1Cl [15(V3)] | 87 | 0 (0 indicates less than 40% mortality) | 0 |  | −2 | 0 (0 indicates less than 40% mortality) | 10 | 100 | 100 | 100 | 100 |  |  |  |  |  |
| CC(C)=Cc1nc2cc(CC(=O)Nc3snc(C)c3Cl)ccc2o1 [46(A3)] | 97 | 0 (0 indicates less than 40% mortality) | 0 | 99 | 88 | 5 (5 indicates 40-79% mortality) | 84 | 100 | 100 | 92 |  |  |  |  |  |  |
| CC=C(C)c1nc2cc(CC(=O)Nc3snc(C)c3Cl)ccc2o1 [47(A3)] | 86 | 0 (0 indicates less than 40% mortality) | 0 | 92 | 63 | 0 (0 indicates less than 40% mortality) | 37 | 98 | 99 | 88 |  |  |  |  |  |  |
| Cc1nsc(NC(=O)Cc2ccc3oc(COc4ccccc4)nc3c2)c1Cl [140(A3)] | 44 | 0 (0 indicates less than 40% mortality) | 0 | 63 | 13 | 0 (0 indicates less than 40% mortality) | 70 | 99 | 96 |  |  |  |  |  |  |  |
| CSc1nc2cc(CC(=O)Nc3snc(C)c3Cl)ccc2o1 [220(A3)] | 12 | 0 (0 indicates less than 40% mortality) | 0 | 6 | 17 | 5 (5 indicates 40-79% mortality) | 11 | −5 |  |  |  | 100* | 100* |  |  |  |
| CCSc1nc2cc(CC(=O)Nc3snc(C)c3Cl)ccc2o1 [221(A3)] | 50 | 0 (0 indicates less than 40% mortality) | 0 | 84 | 20 | 9 (9 indicates 80-100% mortality) | 25 | 23 | 99 | 93 | 99 |  |  |  |  |  |
| Cc1nsc(NC(=O)Cc2ccc3oc(SC(C)C)nc3c2)c1Cl [223(A3)] | 73 | 0 (0 indicates less than 40% mortality) | 0 | 55 | 12 | 0 (0 indicates less than 40% mortality) | 60 | 30 | 99 | 63 | 93 |  |  |  |  |  |
| Cc1nsc(NC(=O)Cc2ccc3oc(SC(C)(C)C)nc3c2)c1Cl [224(A3)] | 88 | 0 (0 indicates less than 40% mortality) | 0 | 99 | 16 | 0 (0 indicates less than 40% mortality) | 60 | 91 | 98 | 91 | 100 |  |  |  |  |  |
| Cc1nsc(NC(=O)Cc2ccc3oc(-c4ccccc4)nc3c2)c1Cl [248(A3)] |  | 0 (0 indicates less than 40% mortality) | 7 |  |  | 0 (0 indicates less than 40% mortality) | 100 | 7 |  |  |  | 17* | 100* | 0* | 97* | 0* |
| Cc1nsc(NC(=O)Cc2ccc3oc(-c4ccc(C(C)(C)C)cc4)nc3c2)c1Cl [252(A3)] | 30 | 0 (0 indicates less than 40% mortality) | 0 | 38 | −13 | 0 (0 indicates less than 40% mortality) | −47 | 79 | 97 | 46 |  |  |  |  |  |  |
| Cc1nsc(NC(=O)Cc2ccc3oc(-c4ccc(Cl)cc4Cl)nc3c2)c1Cl [257(A3)] |  | 5 (5 indicates 40-79% mortality) | 11 |  |  | 0 (0 indicates less than 40% mortality) | 0 | 61 |  |  |  | 0* | 100* | 0* | 79* | 0* |
